Here are results for 15 compounds from PubChem BioAssay (NCI).

Common to all, as to assay: NCI-60 cell line screen, 48 h
In assay [1] the test system is RXF 393 renal.
Assay [2] has as its system HCT-15 colon.
For assay [3], the system named is HOP-92 NSCLC.
For assay [4], the system named is A549 NSCLC.
Assay [5] concerns HL-60(TB) leukemia.
Assay [6] deals with NCI/ADR-RES ovarian.
Assay [7] concerns OVCAR-4 ovarian.
Assay [8] deals with HS 578T breast.
The subject of assay [9] is OVCAR-8 ovarian.
Assay [10] has as its system BT-549 breast.

SMILES strings stand for the structures. Several values for one entry are separate records, joined by “and”; a condition that tells them apart may be missing. Equal entries are not always repeated.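 How tested: cells in 96-well plates exposed to compound for 48 hours at five concentrations. At the GI50, growth is halved. TGI denotes the concentration required for complete inhibition of growth.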

`CC1OC(CC(=O)O)Cc2c1c(O)c1c(O)cc(-c3cc(=O)c4c(=O)c5c(c(=O)c=4c3=O)CC(CC(=O)O)OC5C)c(O)c1c2O` (stereo not given): the GI50 in [1] was 12 µM; in assay [2] it was 61.6 µM; in [4], 53.7 µM; in assay [6], 59.6 µM; in [7] it was 35.1 µM; in [8], 38.3 µM. Further, the GI50 in assay [10] was 52.7 µM. Besides, the TGI in [1] is 20.3 µM and 27 µM; in assay [2], 16.7 µM; in assay [3], 41.3 µM; in assay [4] it was above 100 µM; in assay [5], above 49.1 µM; in [7], 39.7 µM. In [9], this compound gave a TGI of 75.9 µM.

`CC[C@H]1CCC/C=C/[C@@H]2C[C@H](O)C[C@H]2[C@H](O)/C=C/C(=O)O1`: the GI50 in [1] was 0.016 µM; in [2] it was 0.0446 µM; in assay [3] it was 0.157 µM; in assay [4], 0.0434 µM; in assay [5], 0.0669 µM; in [6], 0.0379 µM. The GI50 in [7] is 0.0361 µM; in [9], 0.0432 µM; in assay [10], 0.0549 µM. In addition, the TGI in assay [1] was 0.0379 µM; in assay [3], above 100 µM; in assay [4], above 100 µM; in [5], 0.473 µM; in assay [6], above 45.3 µM; in assay [8] it was above 100 µM. In addition, the TGI in [9] and in [10] was above 100 µM in each case.

With `O=c1cc(-c2ccccc2)oc2c1ccc1ccccc12`, the GI50 is 24.1 µM in [1]; 30 µM in assay [2]; 9.25 µM in assay [3]; 23.8 µM in assay [4]; 23.9 µM in [5]; 30.5 µM in [6]. For the same compound, the GI50 is 21.2 µM in assay [7], 23.4 µM in assay [8], 26 µM in assay [9] and 21 µM in assay [10]. The TGI is 64.4 µM in assay [1]; above 100 µM in assay [2]; 45.5 µM in assay [3]; above 100 µM in [4]; 56.8 µM in [5]; above 100 µM in [6]. Further, the TGI is above 100 µM in assay [7], 83.2 µM in assay [8], above 100 µM in [9] and 55.8 µM in assay [10].

In the case of `Fc1ccc(-c2ncn(CCCN3CCOCC3)c2-c2ccncc2)cc1`, the GI50 in [1], in assay [2], in assay [3], in assay [4], in assay [5] and in [6] was above 25 µM throughout. The GI50 in assay [7], in assay [8], in assay [9] and in assay [10] was above 25 µM throughout. The TGI in [1], in assay [2], in [3], in assay [4], in assay [5] and in assay [6] was above 25 µM throughout. In addition, the TGI in assay [7], in [8], in assay [9] and in [10] was above 25 µM in each case.

In the case of `FC(F)(F)c1nc(SCc2ccc(Cl)cc2)n[nH]1`, the TGI in assay [1], in assay [2], in assay [3], in [4], in assay [5] and in [6] was above 100 µM each time. Also, the TGI in [7], in [8], in assay [9] and in [10] was above 100 µM in each case.

Turning to `S=C1SCN(Cc2ccccc2)CN1Cc1ccccc1`, the GI50 is 1.55 µM in assay [1]; 4.13 µM in [2]; 2.37 µM in [3]; 15.4 µM in assay [4]; 1.17 µM in [5]; 33.1 µM in assay [6]. The GI50 was 9.43 µM in assay [7], 3.02 µM in [8], 21.6 µM in assay [9] and 6.51 µM in assay [10]. Further, the TGI in [1] is 6.32 µM; in assay [2] it was 17.1 µM; in assay [3] it was 13.8 µM; in assay [4], 37.6 µM; in assay [5] it was 3.83 µM; in assay [6], above 100 µM. In addition, the TGI in assay [7] worked out at 27.6 µM; in assay [8], 25.6 µM; in [9], 90 µM; in assay [10], 33.4 µM.

Take `CCc1[nH]nc(C(N)=O)c1N=NN(C)C`: the TGI in [1], in assay [2], in assay [3], in [4], in assay [5] and in assay [6] was above 100 µM each time. For the same compound, the TGI in assay [7], in assay [8], in assay [9] and in [10] was above 100 µM each time.

`CCOC(=O)Nc1ccc2c(c1)C(=O)N(CC)c1ccccc1O2`: the GI50 in assay [1] is 0.0277 µM; in [2], 0.0746 µM; in assay [3], 1.5 µM; in [4], 0.145 µM; in [5] it was 0.0545 µM; in [6] it was 0.124 µM. The GI50 in assay [7] was 0.237 µM; in assay [8] it was 0.117 µM; in [9] it was 0.235 µM; in assay [10], 0.184 µM. In addition, the TGI was 54.9 µM in [1]; above 100 µM in assay [2]; above 100 µM in [3]; above 100 µM in [4]; 0.155 µM in assay [5]; above 100 µM in assay [6]. In addition, the TGI in [7] is above 100 µM; in [8], above 100 µM; in [9], above 100 µM; in [10] it was 16.9 µM.

Take `O=C1c2ccccc2C(=O)c2c1oc1c2c(=O)[nH]c2ccc(Cl)cc21`: the GI50 in assay [1] is 0.21 µM; in [2], 0.208 µM; in [3] it was 0.151 µM; in assay [4], 1.03 µM; in [5], 1.7 µM; in assay [6], 0.354 µM. For the same compound, the GI50 in [7] was 0.165 µM; in [8], 0.264 µM; in assay [9], 0.389 µM; in [10], 0.304 µM. The TGI in assay [1] turned out to be 0.577 µM; in assay [2], 0.512 µM; in [3], 0.389 µM; in [4] it was 2.92 µM; in assay [5] it was 5.25 µM; in [6] it was 1.77 µM. For the same compound, the TGI in [7] came out at 0.443 µM; in [8] it was 1.37 µM; in [9], 2.29 µM; in assay [10], 1.31 µM.

As to `CCN(CC)CCn1c(=O)c2cc(OC)c(OC)cc2c2ccc3cc4c(cc3c21)OCO4`, the GI50 in assay [1] is 0.448 µM; in assay [2], 1.61 µM; in assay [3], 0.49 µM; in assay [4] it was 0.725 µM; in assay [5], 0.721 µM; in assay [6] it was 0.42 µM. In addition, the GI50 is 0.477 µM in [7], 12.4 µM in assay [8], 0.922 µM in assay [9] and 0.456 µM in assay [10]. In addition, the TGI in assay [1] is 17.2 µM; in assay [2], 10.3 µM; in [3] it was above 50 µM; in [4] it was 8.53 µM; in assay [5] it was 3.16 µM; in [6] it was 43.9 µM. Further, the TGI in assay [7] worked out at 19.9 µM; in assay [8], 45.4 µM; in assay [9] it was 48.9 µM; in [10] it was 17.2 µM.

For `CCOC(=O)c1c2c(n3ccc(NC(=O)CCN4CCCCC4)cc13)C(=O)c1ncccc1C2=O`, the GI50 in assay [1] is 0.256 µM; in assay [2], 1.13 µM; in assay [3] it was 9.63 µM; in [4], 0.0547 µM; in assay [5], 1.46 µM; in [6], 1.14 µM. Moreover, the GI50 is 1.42 µM in [7], 0.351 µM in assay [8], 1.28 µM in assay [9] and 4.1 µM in assay [10]. In addition, the TGI in assay [1] is 2.4 µM; in [2], 2.86 µM; in assay [3], 24.6 µM; in assay [4], 2.81 µM; in [5] it was 3.46 µM; in assay [6], 3.66 µM. The TGI in [7] is 3.56 µM; in assay [8], 6.57 µM; in assay [9], 3.71 µM; in assay [10], 21.4 µM.

Regarding `COc1cc2c(cc1O)c(=O)n(CCN(C)C)c1c3cc4c(cc3ncc21)OCO4`, the GI50 is 0.0318 µM in [1]; 0.0284 µM in [2]; 0.0325 µM in [3]; 0.0356 µM in [4]; below 0.01 µM in assay [5]; below 0.01 µM in [6]. For the same compound, the GI50 is 0.0511 µM in assay [7], 0.366 µM in assay [8], below 0.0116 µM in assay [9] and 0.025 µM in assay [10]. In addition, the TGI in [1] was 0.116 µM; in [3], 0.455 µM; in [4], 0.594 µM; in assay [5], 0.104 µM; in assay [6], 0.526 µM; in assay [7], 1.74 µM. In addition, the TGI worked out at 26.1 µM in [8], 2.52 µM in assay [9] and 0.915 µM in assay [10].

As for `COc1cc(NS(C)(=O)=O)ccc1Cc1c2ccccc2nc2ccccc12`, the GI50 in assay [1] was 0.396 µM; in assay [2] it was 0.371 µM; in [3], 0.129 µM; in assay [4], 0.0164 µM; in [5] it was 0.0258 µM; in assay [6] it was 1.44 µM. For the same compound, the GI50 in assay [7] is 1.25 µM; in [8] it was 1.72 µM; in assay [9] it was 0.146 µM; in assay [10] it was 0.267 µM. For the same compound, the TGI in assay [1] worked out at 2.06 µM; in assay [2], 2.76 µM; in assay [3] it was 1.14 µM; in assay [4], 1.06 µM; in [5] it was 0.141 µM; in [6], 10 µM. Further, the TGI in [7] stood at 2.52 µM; in assay [8], 8.17 µM; in assay [9], 1.37 µM; in assay [10], 1.97 µM.

Regarding `NNc1nc2ccccc2o1`, the TGI in [1], in assay [2], in [3], in [4], in assay [5] and in assay [6] was above 100 µM each time. Besides, the TGI in assay [7], in assay [8], in [9] and in assay [10] was above 100 µM throughout.

`CC(C)=Cc1cccc2[nH]c(O)c(N=Nc3ccc(S(N)(=O)=O)cc3)c12`: the GI50 in [1] was 0.987 µM; in [2], 4.32 µM; in assay [3], 6.57 µM; in assay [4], 4.1 µM; in assay [5], 3.37 µM; in [6], above 23.4 µM. Further, the GI50 in [7] was 1.26 µM; in assay [8], 0.506 µM; in assay [9], 5 µM; in assay [10] it was above 22.8 µM. Also, the TGI is above 19.4 µM in assay [1]; above 25 µM in assay [2]; above 25 µM in assay [3]; above 25 µM in assay [4]; above 25 µM in assay [5]; above 25 µM in [6]. Further, the TGI in assay [7] was above 25 µM; in [8], 16.4 µM; in assay [9], above 25 µM; in assay [10] it was above 25 µM.
